Source: ChEMBL document CHEMBL3244019, “Chemical and biological studies of 1-(2,5-dihydroxy-4-methylphenyl)-2-aminopropane, an analogue of 6-hydroxydopamine” (J Med Chem, 1979)

Tests used:
[1] = Half life in rabbit liver homogenates with 13 ug of protein per ml assessed as compound auto-oxidation at 37 uM; format: ADME, tissue-based, Oryctolagus cuniculus; conditions: liver homogenate
[2] = Half life of the compound in 0.1 M metal-free buffer assessed as compound auto-oxidation at 37 uM at pH 7.4; format: physicochemical
[3] = Metabolic stability in rabbit liver homogenates with 90 ug of protein per ml assessed as compound auto-oxidation at 37 uM after 15 mins; format: ADME, tissue-based, Oryctolagus cuniculus; conditions: tissue homogenate, 0.25 h
[4] = Half life of the compound assessed as compound auto-oxidation in 0.1 M buffer at 37 uM at pH 7.4; format: physicochemical
[5] = Half life in rabbit liver microsomes assessed as compound auto-oxidation at 37 uM; format: ADME, Oryctolagus cuniculus
Albumin [6] = target: T1, Albumin (Bos taurus, UniProt P02769); assay: Covalent binding affinity to bovine serum albumin assessed per mol of BSA at 4.8 mM after 1 hr by combustion-LSC method; format: ADME; conditions: cattle, 4800 µM
T1 sequence (P02769 whole entry): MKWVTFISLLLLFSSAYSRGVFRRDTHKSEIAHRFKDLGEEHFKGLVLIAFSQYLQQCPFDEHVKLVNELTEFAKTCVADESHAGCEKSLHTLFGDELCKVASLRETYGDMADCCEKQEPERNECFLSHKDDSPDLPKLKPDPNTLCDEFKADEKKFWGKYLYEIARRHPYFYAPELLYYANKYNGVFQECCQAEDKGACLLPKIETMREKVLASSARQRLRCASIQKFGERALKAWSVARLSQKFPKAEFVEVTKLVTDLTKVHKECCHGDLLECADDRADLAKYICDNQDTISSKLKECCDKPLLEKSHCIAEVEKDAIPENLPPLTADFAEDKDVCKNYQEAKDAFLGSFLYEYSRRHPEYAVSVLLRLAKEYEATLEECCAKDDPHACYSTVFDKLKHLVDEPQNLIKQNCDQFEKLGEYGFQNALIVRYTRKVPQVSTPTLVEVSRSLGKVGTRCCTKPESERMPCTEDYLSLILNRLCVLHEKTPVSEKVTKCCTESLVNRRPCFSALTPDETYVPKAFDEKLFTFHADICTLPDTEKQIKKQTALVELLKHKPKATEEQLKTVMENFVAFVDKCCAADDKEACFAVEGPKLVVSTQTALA

Albumin [7] = target: T1, Albumin; assay: Covalent binding affinity to bovine serum albumin at 4.8 mM after 1 hr by combustion-LSC method in presence of DDQ relative to control; format: ADME; conditions: cattle, 4800 µM
[8] = Covalent binding in rabbit liver microsomal macromolecules at 60 uM after 15 mins in presence of NADPH; format: ADME, Oryctolagus cuniculus; conditions: microsomes, 0.25 h
Brain = assay: Drug uptake in Sprague-Dawley rat brain at 6.6 mg, iv after 2 hrs; format: ADME, organism-based; conditions: in vivo

SMILES: Cc1cc(O)c(CC(C)N)cc1O (centres undefined)
- half-life at 37 µM [1]: 1.17 h
- half-life at 37 µM [2]: 3 h
- Stability [3]: Stable
- half-life at 37 µM [4]: 0.167 h
- half-life at 37 µM [5]: 1.67 h

SMILES: [3H]C([3H])([3H])C(N)C([3H])([3H])c1cc(O)c(C)cc1O (centres undefined)
- PB (Albumin [6]): 0.12 equiv
- fold change (FC) (Albumin [7]): 2

SMILES: [3H]C([3H])([3H])C(N)C([3H])([3H])c1cc(OC)c(C)cc1OC (centres undefined)
- Activity [8]: 0.2%

SMILES: [3H]C1C2=CC(=O)C(C)=CC2=NC1C (centres undefined)
- Drug uptake (Brain): 0.05%
